pIC50: −log10 of the molar value.

20 compounds from ChEMBL document CHEMBL4316594, “An overview of grayanane diterpenoids and their biological activities from the Ericaceae family in the last seven years” (Eur J Med Chem, 2019) can be followed below.

Assay [1] deals with Mus musculus. The experiment in a line: Antinociceptive activity in ip dosed Kunming mouse model assessed as inhibition of acetic acid-induced writhes pretreated for 15 mins followed by acetic acid challenge and measured for 20 mins post acetic acid challenge. Conditions: read-out: ID50 (the source's name). It counts as functional.
For assay [2], the system named is Mus musculus. Kind of assay: Antinociceptive activity in Kunming mouse model assessed as inhibition of acetic acid-induced writhes at 5 mg/kg, ip pretreated for 15 mins followed by acetic acid challenge and measured for 20 mins post acetic acid challenge relative to control. In kind it is functional.
The target in assay [3] is T1, Tyrosine-protein phosphatase non-receptor type 1 (Homo sapiens, UniProt P18031).
T1 sequence (P18031 whole entry): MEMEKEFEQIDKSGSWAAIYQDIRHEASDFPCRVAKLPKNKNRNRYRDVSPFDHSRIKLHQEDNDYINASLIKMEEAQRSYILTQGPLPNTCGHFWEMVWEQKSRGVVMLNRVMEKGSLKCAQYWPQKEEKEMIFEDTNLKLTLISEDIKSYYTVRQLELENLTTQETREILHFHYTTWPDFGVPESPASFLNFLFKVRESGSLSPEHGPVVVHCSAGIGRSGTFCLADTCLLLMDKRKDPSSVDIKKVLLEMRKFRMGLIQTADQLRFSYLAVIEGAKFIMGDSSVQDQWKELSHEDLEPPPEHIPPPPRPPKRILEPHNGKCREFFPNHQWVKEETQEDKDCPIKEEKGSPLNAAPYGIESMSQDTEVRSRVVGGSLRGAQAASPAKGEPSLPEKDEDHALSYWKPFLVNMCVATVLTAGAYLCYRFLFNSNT
Kind of assay: Inhibition of recombinant human PTP1B expressed in Escherichia coli using pNPP as substrate preincubated for 10 mins followed by substrate addition for 30 mins and measured at 5 mins interval for 30 mins.

For assay [4], the system named is Mus musculus. The experiment in a line: Antinociceptive activity in Kunming mouse model assessed as inhibition of acetic acid-induced writhes at 0.08 mg/kg, ip pretreated for 30 mins followed by acetic acid challenge and measured for 30 mins post acetic acid challenge relative to control. It counts as functional.
Assay [5] deals with Pieris brassicae. The experiment in a line: Antifeedant activity in Pieris brassicae measured 24 hrs post leaf feeding by leaf disc method. It counts as functional, organism-based.
In assay [6] the target is T1, Tyrosine-protein phosphatase non-receptor type 1. Kind of assay: Inhibition of recombinant human PTP1B expressed in Escherichia coli using pNPP as substrate preincubated for 30 mins followed by substrate addition for 45 mins and measured at 5 mins interval for 30 mins.
Assay [7] deals with Mus musculus. The experiment in a line: Antinociceptive activity in Kunming mouse model assessed as inhibition of acetic acid-induced writhes at 10 mg/kg, ip pretreated for 15 mins followed by acetic acid challenge and measured for 20 mins post acetic acid challenge relative to control. It counts as functional.
In assay [8] the target is T1, Tyrosine-protein phosphatase non-receptor type 1. Kind of assay: Inhibition of recombinant PTP1B catalytic domain (unknown origin) using pNPP as substrate.
Assay [9] has as its system Influenza A virus. The experiment in a line: Antiviral activity against Influenza A virus (A/Hanfang/359/95(H3N2)) infected in MDCK cells assessed as reduction in virus-induced cytopathogenicity. In kind it is functional, organism-based.
The subject of assay [10] is Coxsackievirus B3. The experiment in a line: Antiviral activity against Coxsackievirus B3 infected in African green monkey Vero cells. In kind it is functional, organism-based. The following applies: Enterovirus B.

Turning to `CC(C)(O)[C@]12OC(=O)C[C@H]1[C@](C)(O)[C@@H]1CC[C@@H]3[C@@H](O)[C@@]1([C@H](O)[C@H]2O)[C@@H](O)[C@@]3(C)O`, the ED50 in assay [1] is 1.24 mg/kg. For the same compound, in assay [2], the inhibition in vivo (as a rule, the relative decrease from the control value, in per cent) at 5 mg/kg came to 63.5%.

For `CO[C@@H]1O[C@H]2O[C@@H]3C[C@]45C[C@@](C)(O)[C@H](CC[C@H]4[C@@](C)(O3)[C@H]2CC1(C)C)[C@H]5O`, the pIC50 (as a rule, the negative decadic logarithm of the IC50, by convention in mol/L) in assay [3] is 4.37.

For `CO[C@H]1C[C@]23C[C@@](C)(O)[C@H](CC[C@H]2[C@](C)(C2=CO[C@H](OC)C(C)(C)C2=O)O1)[C@H]3O`, the pIC50 in assay [3] was 4.78.

For `CC1(C)[C@@H](O)[C@H](Cl)[C@H]2[C@](C)(O)[C@@H]3CC[C@@H]4[C@@H](O)[C@]3(C[C@@]4(C)O)[C@H](O)[C@@H](O)[C@@]21O`, in [4], the inhibition in vivo at 0.08 mg/kg came to 49.8%.

`CCC(=O)O[C@@H]1[C@@H](OC(C)=O)[C@@]2([C@](C)(O)CCl)OC(=O)C[C@H]2[C@](C)(O)[C@@H]2CC[C@@H]3[C@@H](OC(C)=O)[C@]12[C@@H](OC(C)=O)[C@@]3(C)OC(C)=O`: the EC50 in [5] was determined as 10.07 microg/cm2.

Consider `Cc1cccc(C[C@H]2O[C@]3(C)O[C@@]24[C@@H]([C@@H](O)[C@H](O)C4(C)C)[C@H]3C)c1`, for which the pIC50 in assay [6] is 4.49.

For the compound `CC(O)C(=O)O[C@@H]1[C@H]2CC[C@H]3[C@@](C)(O)[C@@H]4[C@@H]5O[C@@H]5C(C)(C)[C@@]4(O)[C@H](O)C(=O)[C@@]13C[C@@]2(C)O` (stereo partly drawn), in assay [4], the inhibition in vivo at 0.08 mg/kg came to 37.6%.

For `CC1=C[C@]23C[C@H]1CC[C@H]2[C@]1(C)[C@@H](O)CCCC(C)(C)C(=O)[C@@H]1C3`, in assay [5], the “inhibition (INH)” value came out at 45%.

As for `CO[C@H]1[C@H](O)C(C)(C)[C@@]2(O)[C@H](O)[C@@H](O)[C@]34C[C@@](C)(O)[C@H](CC[C@H]3[C@@](C)(O)[C@H]12)[C@H]4O`, the inhibition in vivo at 0.08 mg/kg in assay [4] was 56.8%.

With `CC1=C[C@@H]2O[C@@]3(C)[C@@H]4C[C@H](O)[C@H]1[C@]24C[C@@H](O)[C@@]1(O)[C@H]3[C@@H]2O[C@@H]2C1(C)C`, in [3], the pIC50 was 4.61.

For `C[C@]12CC[C@H](O)[C@@]3(C)[C@@H]4CC[C@@H]5C[C@]4(C[C@@]5(C)O)C[C@@]3(OC1=O)C2=O`, in assay [5], the “inhibition (INH)” value is recorded as 45%. For the same compound, in assay [7], the inhibition in vivo at 10 mg/kg was 45%.

For `C=C1[C@H]2C[C@H](O)C(C)(C)[C@@]2(O)[C@H](O)C[C@]23C[C@@](C)(O)[C@H](CC[C@@H]12)[C@H]3O`, the pIC50 in assay [8] was 4.61.

In the case of `CC1(C)[C@H]2O[C@H]2[C@H]2[C@@]3(C)O[C@H](C[C@@]45C=C[C@@H](C[C@H]43)[C@](C)(O)C5)[C@]21C`, in [9], the pIC50 is 4.72.

In the case of `CC1(C)CCC[C@H](O)[C@@]2(C)[C@@H]3CC[C@@H]4C[C@@]3(C[C@H]2C1=O)C[C@@]4(C)O`, in assay [5], the “inhibition (INH)” value came out at 45%.

Turning to `C=C1[C@H]2C[C@H](O)C(C)(C)[C@@]2(O)[C@H](O)C[C@]23C=C(C)[C@H](CC[C@@H]12)[C@H]3O`, in [8], the pIC50 is 5.50.

Regarding `CC(C)(O)[C@]12OC(=O)C[C@H]1[C@](C)(O)[C@@H]1[C@H](O)C[C@@H]3[C@@H](O)[C@@]1([C@H](O)[C@H]2O)[C@@H](O)[C@@]3(C)O`, the ED50 in assay [1] was 0.72 mg/kg. Also, the inhibition in vivo at 5 mg/kg in assay [2] was 69.9%.

In assay [5], `CCC(=O)O[C@@H]1[C@H]2CC[C@H]3[C@@](C)(O)[C@@H]4CC(=O)O[C@]4([C@](C)(O)CCl)[C@H](OC(C)=O)[C@@H](OC(C)=O)[C@@]13[C@@H](OC(C)=O)[C@@]2(C)OC(C)=O` returned an EC50 of 5.33 microg/cm2.

Regarding `Cc1cccc(C[C@H]2O[C@]3(C)O[C@@]24[C@@H]([C@@H](O)[C@H](O)C4(C)C)[C@@H]3C)c1`, in assay [6], the pIC50 is 4.64.

In the case of `CO[C@@H]1C[C@]23C[C@@](C)(O)[C@H](CC[C@H]2[C@](C)(C2=CO[C@H](OC)C(C)(C)C2=O)O1)[C@H]3O`, the pIC50 in assay [3] is 4.70.

Compound `CC(=O)[C@@H]1C[C@@H](O)[C@H]2[C@@H](O)[C@@]1(C[C@H]1OC(=O)C(C)(C)[C@]1(O)CCO)C[C@@]2(C)O` showed a pIC50 in assay [10] of 4.56.
